The values that follow come from patent publication US20220079903A1, “COMPOSITIONS AND METHODS FOR TREATING AND PREVENTING ADHESIONS AND ILUES” (Leading Biosciences, Inc., priority 2016, published 2022).

The subject of this experiment is abdominal adhesions in a rat model of surgical adhesions. Put plainly: rat model of surgical (abdominal) adhesions, small intestine rubbed with latex glove. In kind it is in vivo, Wistar rats. The method, then: The objective of the current study was to compare the efficacy of enteral saline, enteral Formula A, lavage tranexamic acid (TXA), and enteral Formula A with lavage TXA to prevent abdominal adhesions in a rat model of surgical adhesions.
The tests were conducted on Wistar rats from Harlan/Charles River. The sample size included 40 animals in total, with a target weight of 350-400 g (males). The rat was selected as the test model since it is accepted by regulatory authorities as a rodent animal model for toxicity studies, and high quality animals are readily available and a large amount of background pathology data is available in this species. […] The model reproducibility provides the ability to observe directional proof of concept data within normal experimental conditions.
Four groups were measured; Group 1 served as the control wherein saline (Baxter, 0.9% sodium chloride IV solution bags) was administered via enteral administration; subjects in Group 2 were exposed to an enteral administration of Formula A; subjects in Group 3 were exposed to a lavage of tranexamic acid (TXA) and saline; and subjects in Group 4 were given enteral administration of Formula A and a lavage of tranexamic acid (TXA) and saline.
Prior to the experiment, the animals were fasted and prepared for the adhesion model according to the schedule: (A) Evening Prior to Experiment—Begin Fasting; (B) Day 1: Hour−2.0—Administration of enteral test article (oral gavage); (C) Day 1: Hour 0.0−Induction of anesthesia with ketamine with a dose of 75 mg/kg, I.M; and (D) Day 1: Hour 0+10 min—induction of surgical adhesion model.
A small skin incision in the midline of the abdomen was made for isolation of small intestine. A length of the small intestine was rubbed gently with a latex glove 10 times. Animals were given abdominal lavage test article immediately after the small intestine was rubbed. Laparotomy was sutured and the animal allowed to recover. During surgery, the animals were kept warm (37° C.) at all times by a temperature therapy pad and vital signs (systemic blood pressure or respiratory rate, body temperature) were monitored at all times during experiment. Leg motion and toe reflexes were monitored for anesthetic level. On day 28—The animals were euthanized and the number and size/thickness of adhesions were quantified.

Setting [1] is: vs enteral saline Group 1, 2 side T-test.

Each structure is given as a SMILES string. “Also recorded” adds a separate entry of the source.

For `NC[C@H]1CC[C@H](C(=O)O)CC1` [tranexamic acid (TXA), tranexamic acid], under “Wistar rats, day 28, enteral = 4 ml oral gavage 2 hr pre surgery, lavage = 4 ml TXA in saline right after rubbing, saline control 4.10”, the “mean number of adhesions per animal” value amounted to 0.67. Moreover, the “mean severity of adhesions (score)” value (day 28, score 0-4: 4 = no adhesions, 3 ≤1 mm, 2 >1 mm ≤2 mm, 1 >2 mm, 0 = kinked intestine, saline control 1.60) came to 3.00. Under setting [1], the “number of adhesions relative to the control (in words)” value is recorded as “significantly less adhesions relative to the control; also recorded: significant relative to the control Group 1” and the “severity of adhesions relative to the control (in words)” value is reported as “significantly smaller adhesions in terms of severity relative to the control; also recorded: significant relative to the control Group 1”.
